In patent US11185075B2, “Herbicidal phenyltriazolinones” (BASF SE, priority 2016, dated 2021):

Key:
Format in all cases: in vivo
Amaranthus retroflexus = assay: greenhouse pre-emergence herbicidal test; settings: 16 g/ha, scale from 0 to 100
Excerpt: (§1) The seeds of the test plants were sown separately for each species. For the pre-emergence treatment, the active ingredients, which had been suspended or emulsified in water, were applied directly after sowing by means of finely distributing nozzles. The containers were irrigated gently to promote germination and growth and subsequently covered with transparent plastic hoods until the plants had rooted. This cover caused uniform germination of the test plants, unless this had been impaired by the active ingredients. Depending on the species, the plants were kept at 10-25° C. or 20-35° C., respectively. The test period extended over 2 to 4 weeks. During this time, the plants were tended, and their response to the individual treatments was evaluated. Evaluation was carried out using a scale from 0 to 100. 100 means no emergence of the plants, or complete destruction of at least the aerial moieties, and 0 means no damage, or normal course of growth. A good herbicidal activity is given at values of at least 70 and a very good herbicidal activity is given at values of at least 85.

Setaria faberi = assay: greenhouse pre-emergence herbicidal test; settings: 16 g/ha, scale from 0 to 100
Excerpt: as §1

Avena fatua = assay: greenhouse post-emergence herbicidal test; settings: 16 g/ha, scale from 0 to 100
Excerpt: (§2) The seeds of the test plants were sown separately for each species. For the post-emergence treatment, the test plants were first grown to a height of 3 to 15 cm, depending on the plant habit, and only then treated with the active ingredients which had been suspended or emulsified in water. For this purpose, the test plants were either sown directly and grown in the same containers, or they were first grown separately as seedlings and transplanted into the test containers a few days prior to treatment. Depending on the species, the plants were kept at 10-25° C. or 20-35° C., respectively. The test period extended over 2 to 4 weeks. During this time, the plants were tended, and their response to the individual treatments was evaluated. Evaluation was carried out using a scale from 0 to 100. 100 means no emergence of the plants, or complete destruction of at least the aerial moieties, and 0 means no damage, or normal course of growth. A good herbicidal activity is given at values of at least 70 and a very good herbicidal activity is given at values of at least 85.

Lolium multiflorum = assay: greenhouse post-emergence herbicidal test; settings: 4 g/ha, scale from 0 to 100
Excerpt: as §2

Alopecurus myosuroides = assay: greenhouse post-emergence herbicidal test; settings: scale from 0 to 100
Excerpt: as §2

| Compound | damages, Amaranthus retroflexus (Amaranthus retroflexus) | damages, Setaria faberi (Setaria faberi) | damages, Avena fatua (Avena fatua) | damages, Lolium multiflorum (Lolium multiflorum) | damages, Alopecurus myosuroides (Alopecurus myosuroides; 4 g/ha) | damages, Alopecurus myosuroides (Alopecurus myosuroides; 16 g/ha) |
| --- | --- | --- | --- | --- | --- | --- |
| CCOC(=O)COc1ccccc1Oc1cc(-n2nc(C)n(C(F)F)c2=O)c(F)cc1Cl [Example 3, Ethyl 2-[2-[2-chloro-5-[4-(difluoromethyl)-3-methyl-5-oxo-1,2,4-triazol-1-yl]-4-fluoro-phenoxy]phenoxy]acetate] | 85 | 85 | 70 | 90 | 70 | 95 |
| CCOC(=O)COc1ccc(Oc2cc(-n3nc(C)n(C(F)F)c3=O)c(F)cc2Cl)cc1 [compound B] | 45 | 0 |  | 70 | 30 |  |
| CCOC(=O)COc1cccc(Oc2cc(-n3nc(C)n(C(F)F)c3=O)c(F)cc2Cl)c1 [compound A] | 45 | 0 | 20 |  |  | 55 |
